Six compounds from patent US20050075335A1, “Pharmaceutical composition comprising n((1-n-butyl-4-piperidinyl)methyl)-3,4-dihydro-2h-(1,3)oxazino(3,2-a)indole-10-carboxamide or salt and process therefor comprising dry granulation” (priority 2002, published 2005) can be followed below.

Counter-ions that a name gives are not always drawn.

This series in a line: Aerated and tapped bulk density of SB-207266-A. The format is physicochemical.
[1] abbreviates: SB-207266-A batches from Description 1.
Where [2] appears, read: typical value, product of Description 2.

On to `CCCCN1CCC(CNC(=O)c2c3n(c4ccccc24)CCCO3)CC1.Cl` [BDC-G-02C], for which, under setting [1], the Aerated bulk density amounted to 0.142 g/mL and the “Tapped bulk Density” value came out at 0.300 g/mL.

In the case of `CCCCN1CCC(CNC(=O)c2c3n(c4ccccc24)CCCO3)CC1` [SB-207266-A, N-[(1-^nbutyl-4-piperidinyl)methyl]-3,4-dihydro-2H-[1,3]-oxazino[3,2-a]indole-10-carboxamide hydrochloride], under setting [2], the Aerated bulk density entry is “ca. 0.14 g/ml” and the Tapped bulk Density result is given as “ca. 0.31 g/ml”.

As for `CCCCN1CCC(CNC(=O)c2c3n(c4ccccc24)CCCO3)CC1.Cl` [BDC-G-04C], under setting [1], the Aerated bulk density came to 0.146 g/mL and the “Tapped bulk Density” value was 0.310 g/mL.

As to `CCCCN1CCC(CNC(=O)c2c3n(c4ccccc24)CCCO3)CC1.Cl` [BDC-G-05C], under setting [1], the Aerated bulk density worked out at 0.152 g/mL and the “Tapped bulk Density” value was determined as 0.308 g/mL.

As to `CCCCN1CCC(CNC(=O)c2c3n(c4ccccc24)CCCO3)CC1.Cl` [BDC-G-03C], under setting [1], the Aerated bulk density turned out to be 0.173 g/mL and the “Tapped bulk Density” value amounted to 0.339 g/mL.

On to `CCCCN1CCC(CNC(=O)c2c3n(c4ccccc24)CCCO3)CC1.Cl` [BDC-H-01C], for which, under setting [1], the Aerated bulk density was 0.136 g/mL and the “Tapped bulk Density” value was 0.250 g/mL.
